The values below come from BindingDB's records for patent US12187713 (Betta Pharmaceuticals, 2025).

This test deals with Programmed cell death 1 ligand/protein 1 (Homo sapiens, UniProt Q9NZQ7+Q15116). Nature of the test: PD-1/PD-L1 Binding Assay (Alphascreen). The method, then:
The assays were conducted in a standard black 384-well polystyrene plate with a final volume of 20 μL. Inhibitors were first serially diluted in DMSO and then added to the plate wells before the addition of other reaction components. The final concentration of DMSO in the assay was […]. Add 100 nL/well of compound to the 384 reaction plate (6008280, PerkinElmer) with Echo and centrifuge at 1000 rpm for 1 minute. Add 5 μL/well 4×PD-L1 solutions to the 384 reaction plate, centrifuge at 1000 rpm for 1 minute, and add 5 μL/well 4×PD-1 solutions, centrifuge at 1000 rpm for 1 minute, and incubate at 25° C. for 15 minutes. The concentrations of the compounds were 300, 100, 33.33, 11.11, 3.70, 1.23, 0.41, 0.137, 0.046, 0.015, 0 nM, respectively. Add 10 μL/well 2× Anti-6×His AlphaLISA Acceptor beads and Streptavidin Donor beads solution (PerkinElmer-AL356F) to the above 384 reaction plate, centrifuge at 1000 rpm for 1 minute, and incubate at 25° C. in the dark for 120 minutes. Read the AlphaLISA signal value using the Envision Reader. IC50 determination was performed by fitting the curve of percent control activity versus the log of the inhibitor concentration using the GraphPad Prism 8.0 software.
(In general: Bead proximity is the source of the signal in Alpha formats.)

Sequence of Programmed cell death 1 ligand/protein 1 (Q9NZQ7 whole entry): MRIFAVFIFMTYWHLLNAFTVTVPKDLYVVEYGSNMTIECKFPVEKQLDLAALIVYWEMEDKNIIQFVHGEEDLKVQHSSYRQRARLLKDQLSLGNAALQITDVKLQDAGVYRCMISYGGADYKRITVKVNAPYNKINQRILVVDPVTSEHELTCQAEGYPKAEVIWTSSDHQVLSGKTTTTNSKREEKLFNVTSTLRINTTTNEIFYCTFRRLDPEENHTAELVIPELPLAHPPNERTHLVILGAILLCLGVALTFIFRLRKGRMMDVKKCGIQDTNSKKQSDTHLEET
Sequence of Programmed cell death 1 ligand/protein 1 (Q15116 whole entry): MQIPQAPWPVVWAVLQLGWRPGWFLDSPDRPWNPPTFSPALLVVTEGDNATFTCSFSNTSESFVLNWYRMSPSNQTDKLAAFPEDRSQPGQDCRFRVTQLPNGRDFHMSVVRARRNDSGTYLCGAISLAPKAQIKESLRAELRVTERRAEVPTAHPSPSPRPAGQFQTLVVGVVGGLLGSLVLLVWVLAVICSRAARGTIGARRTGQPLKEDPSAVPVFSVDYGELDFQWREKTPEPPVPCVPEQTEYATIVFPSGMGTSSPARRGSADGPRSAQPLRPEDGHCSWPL

As a reminder, the IC50 is the concentration that gives 50% inhibition. Low readings indicate greater potency, high ones weaker potency. `Cc1c(C2=NC3C=C(CN4CCC4(C)N)C(OC(F)F)=CC3O2)cccc1-c1cccc(-c2nc3cc(CN4CCC[C@H]4C(=O)O)c(OC(F)F)cc3o2)c1C` (some centres not stated) [US12187713, Example 40] displayed an IC50 of 2.5 nM.
The compound `CCCNCCCN(C)CC1=CC2N=C(c3cccc(-c4cccc(-c5nc6cc(CN7CCC[C@H]7C(=O)O)c(OC(F)F)cc6o5)c4C)c3C)OC2C=C1OC(F)F` (some centres not stated) [US12187713, Example 53] registered an IC50 of 2.5 nM.
